Test results published in US20240067632A1, “WEE1 Degrading Compounds and Uses Thereof” (Bristol-Myers Squibb Company, priority 2022, published 2024).
Read-outs that look alike come from different tables or passages of the source.

Columns and labels:
[1] = target: T1, WEE1 (Homo sapiens, UniProt P30291+Q96SW2); test: WEE1-ePL degradation assay (LentiX-WEE1-ePL-GSPT1-ND cells, InCELL Hunter luminescence, 4 h); assay type: cell-based; settings: 293T-LentiX WEE1-ePL cells; for DC50: read-out: 293T-LentiX WEE1-ePL Degradation 4 hr (EC50)
T1 construct: C-terminal ePL-tagged (DiscoverX, Fremont, CA) full-length WEE1 expression construct; expressed in transfected cells; host or cells: LentiX-HEK293T (Invitrogen), lentiviral transduction; co-expressing GSPT1-GN (G576N, lacking the first 158 amino acids)
How it was run: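 First, compounds were pre-plated as 10-point, 3-fold dilutions (top 1 uM or 10 uM) with DMSO control; next, WEE1-ePL-expressing HEK293T cells were added and held 4 h at 37 °C; finally, InCELL Hunter reagent was applied for 30 min before luminescence reading. A 4PL fit gave EC50 and Ymin.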

[2] = test system: MKN45 cells; test: MKN45 cell proliferation assay (Cell-Titer-Glo, 120 h); assay type: cell-based; settings: for EC50: Homo sapiens, MKN-45, 120 h, Cell-Titer-Glo, read-out: MKN45 Cell Prolif. 120 hr (EC50); for MKN45 Cell Prolif. 120 hr (Ymin-Obs): minimal percent of DMSO control observed in the concentrations tested
Procedure: MKN45 cells were obtained from Celgene internal cell banks and cultured in RPMI complete media (RPMI-1640, 1× Penicillin/Streptomycin, 1× glutamine, 1× Sodium Pyruvate, Non-essential Amino Acids, 10% Fetal Bovine serum, all component from Thermo-Fisher). Compounds were dispensed into 384-well plates using an HP DE300 compound printer in triplicate with 8 compounds on each plate. For each compound, a 10-point dose response was printed at half-log dilutions starting at either 1 uM or 10 uM. The DMSO concentration was kept constant for a final assay concentration of 0.1% per well assuming 50 ul final media volume. Compound plates were sealed and frozen at −20 C until use.
For each assay batch, compound plates were thawed and allowed to reach room temperature, and cells were seeded at 400 cells per well in 50 ul complete RPMI media. After 120 hours of incubation at 37 C and 5% CO2, cells were lysed by addition of 25 μL of Cell-Titer-Glo Reagent (Promega Corporation, Madison, WI), as per manufacturer's instructions, protected from light, shaken for 45 minutes, and total luminescence read by a Perkin Elmer Envision plate reader. Total luminescence signal is linearly correlated with cell number remaining in the well.
Luminescence data was processed per plate by subtracting reagent-only “blank” well luminescence from all measured values and calculating a percent of DMSO control value for each treatment well. Then, to determine the half-maximal effective concentration (EC50) values for cell growth inhibition, a four parameter logistic model was fit to the data for each DMSO-normalized compound: Sigmoidal Dose-Response Model: (FIT=(A+((B−A)/1+((C/x)^D)))) where C is the inflection point (EC50), D is the Hill slope, and A and B are the low and high limits of the fit respectively. The lower limit of the fit (value A) is referred to as Ymin-calculated. The minimal percent of DMSO control that is observed in the concentrations tested for each compound is labeled as “Ymin-obs”, and was recorded and reported in the tables. Sigmoidal fit curves were processed and evaluated using Activity Base (IDBS, Alameda, CA).

[3] = lower limit of the fit (0 = luciferase inhibitor, Ymax = DMSO control)
[4] = lower limit of the fit (Ymin=0 luciferase inhibitor, Ymax DMSO control)

Row | SMILES | 293T-LentiX WEE1-ePL Degradation 4 hr (Ymin) [1, 3] | DC50 [1] [nM] | EC50 ([2]; growth inhibition) [nM] | 293T-LentiX WEE1-ePL Degradation 4 hr (Ymin) [1, 4] | EC50 [2] [nM] | MKN45 Cell Prolif. 120 hr (Ymin-Obs) [2]
1 | COc1ncc2cc(CN3CC[C@H](Oc4ccc5c(c4)CN(C4CCC(=O)NC4=O)C5=O)C3)ccc2n1 (stereo partly drawn) [3-(5-{[(3S)-1-[(2-methoxyquinazolin-6-yl)methyl]pyrrolidin-3-yl]oxy}-1-oxo-2,3-dihydro-1H-isoindol-2-yl)piperidine-2,6-dione] | 37 | 8.05 | 22.3 | – | – | 8.47
2 | CC#Cc1ccc2cc(CN3CC[C@H](Oc4ccc5c(c4)CN(C4CCC(=O)NC4=O)C5=O)C3)ccc2n1 (stereo partly drawn) [3-(1-oxo-5-{[(3S)-1-{[2-(prop-1-yn-1-yl)quinolin-6-yl]methyl}pyrrolidin-3-yl]oxy}-2,3-dihydro-1H-isoindol-2-yl)piperidine-2,6-dione] | 29.33 | 3.18 | 2.02 | – | – | 8.03
3 | O=C1CCC(N2Cc3cc(O[C@H]4CCN(Cc5ccc6nc(N7C[C@H]8CCO[C@H]8C7)ncc6c5)C4)ccc3C2=O)C(=O)N1 (stereo partly drawn) [3-(5-{[(3S)-1-({2-[(3aR,6aR)-hexahydro-2H-furo[2,3-c]pyrrol-5-yl]quinazolin-6-yl}methyl)pyrrolidin-3-yl]oxy}-1-oxo-2,3-dihydro-1H-isoindol-2-yl)piperidine-2,6-dione] | 35 | 12.6 | 13.4 | – | – | 13.09
4 | Cc1cccc2cc(CN3CC[C@H](Oc4ccc5c(c4)CN(C4CCC(=O)NC4=O)C5=O)C3)ncc12 (stereo partly drawn) [3-(5-{[(3S)-1-[(8-methylisoquinolin-3-yl)methyl]pyrrolidin-3-yl]oxy}-1-oxo-2,3-dihydro-1H-isoindol-2-yl)piperidine-2,6-dione] | 32.22 | 6.41 | 118 | – | – | 19.68
5 | O=C1CCC(N2Cc3cc(O[C@@H]4CCN(Cc5cnc6ccccc6c5)C4)ccc3C2=O)C(=O)N1 (stereo in doubt) [rel-3-(1-oxo-5-{[(3R)-1-[(quinolin-3-yl)methyl]pyrrolidin-3-yl]oxy}-2,3-dihydro-1H-isoindol-2-yl)piperidine-2,6-dione] | 26.82 | 6.57 | 57 | – | – | 11.39
6 | CNC1(c2ccc3cc(CN4CC[C@H](Oc5ccc6c(c5)CN(C5CCC(=O)NC5=O)C6=O)C4)ncc3c2)COC1 (stereo partly drawn) [3-(5-{[(3S)-1-({7-[3-(methylamino)oxetan-3-yl]isoquinolin-3-yl}methyl)pyrrolidin-3-yl]oxy}-1-oxo-2,3-dihydro-1H-isoindol-2-yl)piperidine-2,6-dione] | 33 | 96.7 | 56.4 | – | – | 7.77
7 | [2H]c1nc2ccccc2cc1CN1CCC(Oc2ccc3c(c2)CN(C2CCC(=O)NC2=O)C3=O)C1 [3-(1-oxo-5-{[(3S)-1-{[(2-^2H)quinolin-3-yl]methyl}pyrrolidin-3-yl]oxy}-2,3-dihydro-1H-isoindol-2-yl)piperidine-2,6-dione] | 25.75 | 8.41 | 28.5 | – | – | 9.675
8 | O=C1CCC(N2Cc3cc(O[C@H]4CCN(Cc5ccnc6c5CCOC6)C4)ccc3C2=O)C(=O)N1 (stereo partly drawn) [3-(1-oxo-5-{[(3S)-1-({5H,6H,8H-pyrano[3,4-b]pyridin-4-yl}methyl)pyrrolidin-3-yl]oxy}-2,3-dihydro-1H-isoindol-2-yl)piperidine-2,6-dione] | 51 | 62.7 | 1280 | – | – | 56.39
9 | O=C1CCC(N2Cc3cc(O[C@H]4CCN(Cc5ccc6nc(CF)ccc6c5)C4)ccc3C2=O)C(=O)N1 (stereo partly drawn) [3-(5-{[(3S)-1-{[2-(fluoromethyl)quinolin-6-yl]methyl}pyrrolidin-3-yl]oxy}-1-oxo-2,3-dihydro-1H-isoindol-2-yl)piperidine-2,6-dione] | 26.21 | 1.62 | 11.8 | – | – | 10.025
10 | Cc1cc(C#N)c2cc(CN3CC[C@H](Oc4ccc5c(c4)CN(C4CCC(=O)NC4=O)C5=O)C3)ccc2n1 (stereo partly drawn) [6-{[(3S)-3-{[2-(2,6-dioxopiperidin-3-yl)-1-oxo-2,3-dihydro-1H-isoindol-5-yl]oxy}pyrrolidin-1-yl]methyl}-2-methylquinoline-4-carbonitrile] | 66.8 | 20.7 | > 10000 | – | – | 86.89

Now from value to molecule, other results behind:

Row | 293T-LentiX WEE1-ePL Degradation 4 hr (Ymin) [1, 3] | DC50 [1] [nM] | EC50 ([2]; growth inhibition) [nM] | 293T-LentiX WEE1-ePL Degradation 4 hr (Ymin) [1, 4] | EC50 [2] [nM] | SMILES | MKN45 Cell Prolif. 120 hr (Ymin-Obs) [2]
11 | – | 13.1 | – | 35.15 | 26.8 | O=C1CCC(N2Cc3cc(O[C@@H]4CN(Cc5ccc6nc(C7CCOCC7)ccc6c5)C[C@H]4C(F)(F)F)ccc3C2=O)C(=O)N1 (stereo partly drawn) [3-(5-{[(3S,4R)-1-{[2-(oxan-4-yl)quinolin-6-yl]methyl}-4-(trifluoromethyl)pyrrolidin-3-yl]oxy}-1-oxo-2,3-dihydro-1H-isoindol-2-yl)piperidine-2,6-dione] | 28.55
12 | – | – | – | 88.43 | 2.94 | O=C1CC[C@H](N2Cc3cc(O[C@H]4CCN(Cc5cc(C6COC6)c6nc(C7CCOCC7)ccc6c5)C4)ccc3C2=O)C(=O)N1 [(3S)-3-(5-{[(3S)-1-{[2-(oxan-4-yl)-8-(oxetan-3-yl)quinolin-6-yl]methyl}pyrrolidin-3-yl]oxy}-1-oxo-2,3-dihydro-1H-isoindol-2-yl)piperidine-2,6-dione] | 96.91
13 | 29.33 | 6.44 | 55.5 | – | – | Cc1ccc2cc(CN3CC[C@H](Oc4ccc5c(c4)CN(C4CCC(=O)NC4=O)C5=O)C3)cc(C)c2n1 (stereo partly drawn) [3-(5-{[(3S)-1-[(2,8-dimethylquinolin-6-yl)methyl]pyrrolidin-3-yl]oxy}-1-oxo-2,3-dihydro-1H-isoindol-2-yl)piperidine-2,6-dione] | 13.61
14 | 36 | 17.5 | 20.9 | – | – | O=C1CCC(N2Cc3cc(O[C@H]4CCN(Cc5ccc6nc(N7CC[C@@H](O)C7)ccc6c5)C4)ccc3C2=O)C(=O)N1 (stereo partly drawn) [3-(5-{[(3S)-1-({2-[(3R)-3-hydroxypyrrolidin-1-yl]quinolin-6-yl}methyl)pyrrolidin-3-yl]oxy}-1-oxo-2,3-dihydro-1H-isoindol-2-yl)piperidine-2,6-dione] | 11.85
15 | 27.5 | 3.49 | 1.96 | – | – | CO[C@H]1CCC[C@@H](c2ccc3cc(CN4CC[C@H](Oc5ccc6c(c5)CN(C5CCC(=O)NC5=O)C6=O)C4)ccc3n2)C1 (stereo partly drawn) [3-(5-{[(3S)-1-({2-[(1R,3S)-3-methoxycyclohexyl]quinolin-6-yl}methyl)pyrrolidin-3-yl]oxy}-1-oxo-2,3-dihydro-1H-isoindol-2-yl)piperidine-2,6-dione] | 7.623
16 | 31.5 | 8.84 | 7.41 | – | – | O=C1CCC(N2Cc3cc(O[C@H]4CCN(Cc5ccc6nc(C7(O)CCOCC7)ccc6c5)C4)ccc3C2=O)C(=O)N1 (stereo partly drawn) [3-(5-{[(3S)-1-{[2-(4-hydroxyoxan-4-yl)quinolin-6-yl]methyl}pyrrolidin-3-yl]oxy}-1-oxo-2,3-dihydro-1H-isoindol-2-yl)piperidine-2,6-dione] | 6.55
17 | 29.54 | 10.5 | 10.9 | – | – | C[C@@H]1CC(c2ccc3cc(CN4CC[C@H](Oc5ccc6c(c5)CN(C5CCC(=O)NC5=O)C6=O)C4)ccc3n2)CCO1 (stereo partly drawn) [3-(5-{[(3S)-1-({2-[(2R)-2-methyloxan-4-yl]quinolin-6-yl}methyl)pyrrolidin-3-yl]oxy}-1-oxo-2,3-dihydro-1H-isoindol-2-yl)piperidine-2,6-dione] | 14.5
